In PMC10866072, “Design, synthesis, molecular modelling and biological evaluation of novel 6-amino-5-cyano-2-thiopyrimidine derivatives as potent anticancer agents against leukemia and apoptotic inducers” (Journal of Enzyme Inhibition and Medicinal Chemistry, 2024):

Assays:
[1] = MTT cytotoxicity on normal cells; format: cell-based; details: human, WI-38 cells (normal lung fibroblasts), WI-38 normal cells, mean ± SD of three experiments, read-out: IC50 (cytotoxic activity)
Description: The American Type Culture Collection provided WI-38 cells (normal lung cells). The cells were grown in DMEM with 10% heat-inactivated FBS (Hyclone), 10 µg/ml of insulin (Sigma), and 1% penicillin-streptomycin. The remaining chemicals and reagents were all from Sigma or Invitrogen. The MTT test was used to evaluate cytotoxicity, as described previously. Graph pad Prism software (San Diego, CA) was used to estimate the 50% inhibitory concentration (IC50) from dose response curve graphic plots for each conc.

[2] = system: GES1; set-up: method as in PMID 27771599; details: cited from earlier work
[3] = system: MGC-803 cell line; set-up: method as in PMID 27771599; details: cited from earlier work
[4] = system: SW480; set-up: method as in PMID 32645482; details: cited from earlier work
[5] = system: HeLa; set-up: method as in PMID 31525523; details: cited from earlier work
[6] = system: A549; set-up: method as in PMID 31525523; details: cited from earlier work
[7] = system: tumour cell lines; set-up: method as in PMID 32027179; details: broad spectrum antitumor activity, cited from earlier work
[8] = system: mutant EGFRT790M; set-up: method as in PMID 32959865; details: cited from earlier work
[9] = system: EGFRWT; set-up: method as in PMID 32959865; details: cited from earlier work
[10] = system: HCT-116, HepG-2, MCF-7, and A549 cells; set-up: method as in PMID 32959865; details: cited from earlier work
[11] = system: caspase-3 in HepG-2; set-up: method as in PMID 32959865; details: cited from earlier work
[12] = system: HOP-62; format: cell-based; details: Homo sapiens, one dose 10^-5 M, 48 h
[13] = system: HL-60(TB); format: cell-based; details: Homo sapiens, one dose 10^-5 M, 48 h
[14] = system: UACC-62; format: cell-based; details: Homo sapiens, one dose 10^-5 M, 48 h
[15] = system: NCI-H460; format: cell-based; details: Homo sapiens, one dose 10^-5 M, 48 h, read-out: % growth
[16] = system: SN12C; format: cell-based, human; details: Homo sapiens, one dose 10^-5 M, 48 h
[17] = system: 786-0; format: cell-based; details: Homo sapiens, one dose 10^-5 M, 48 h
[18] = system: IGROV1; format: cell-based; details: Homo sapiens, IGROV-1, one dose 10^-5 M, 48 h, read-out: % growth
[19] = system: OVCAR-8; format: cell-based; details: Homo sapiens, one dose 10^-5 M, 48 h
[20] = system: COLO 205; format: cell-based; details: Homo sapiens, one dose 10^-5 M, 48 h
[21] = system: DU-145; format: cell-based; details: Homo sapiens, one dose 10^-5 M, 48 h
[22] = system: MOLT-4; format: cell-based; details: Homo sapiens, one dose 10^-5 M, 48 h, read-out: % growth
[23] = system: LOX IMVI; format: cell-based; details: Homo sapiens, one dose 10^-5 M, 48 h, read-out: % growth
[24] = system: NCI-H522; format: cell-based; details: Homo sapiens, one dose 10^-5 M, 48 h
[25] = system: EKVX; format: cell-based; details: Homo sapiens, one dose 10^-5 M, 48 h
[26] = system: HCT-116; format: cell-based; details: Homo sapiens, one dose 10^-5 M, 48 h, read-out: % growth
[27] = system: MDA-MB-435; format: cell-based; details: Homo sapiens, one dose 10^-5 M, 48 h, read-out: % growth
[28] = system: SK-MEL-28; format: cell-based; details: Homo sapiens, one dose 10^-5 M, 48 h
[29] = system: SK-OV-3; format: cell-based; details: Homo sapiens, one dose 10^-5 M, 48 h
[30] = system: A498; format: cell-based; details: Homo sapiens, one dose 10^-5 M, 48 h
[31] = system: TK-10; format: cell-based; details: Homo sapiens, one dose 10^-5 M, 48 h
[32] = system: full NCI 60 cell lines panel
[33] = system: SR; format: cell-based; details: Homo sapiens, one dose 10^-5 M, 48 h
[34] = system: UO-31; format: cell-based; details: Homo sapiens, UO-31, 48 h, one dose 10^-5 M, 48 h
[35] = system: SK-MEL-2; format: cell-based; details: Homo sapiens, one dose 10^-5 M, 48 h
[36] = system: HOP-92; format: cell-based; details: Homo sapiens, one dose 10^-5 M, 48 h
[37] = system: CCRF-CEM; format: cell-based; details: Homo sapiens, one dose 10^-5 M, 48 h
[38] = system: HS 578T; format: cell-based; details: Homo sapiens; one dose 10^-5 M, 48 h; HS 578T; read-out: % growth
[39] = system: M14; format: cell-based; details: Homo sapiens, one dose 10^-5 M, 48 h
[40] = system: HCC-2998; format: cell-based; details: Homo sapiens, one dose 10^-5 M, 48 h
[41] = system: SW-620; format: cell-based; details: Homo sapiens, one dose 10^-5 M, 48 h
[42] = system: MCF7; format: cell-based; details: Homo sapiens, one dose 10^-5 M, 48 h, read-out: % growth
[43] = system: PC-3; format: cell-based; details: Homo sapiens, one dose 10^-5 M, 48 h
[44] = system: HT29; format: cell-based; details: Homo sapiens, HT-29, one dose 10^-5 M, 48 h
[45] = system: OVCAR-4; format: cell-based; details: Homo sapiens, one dose 10^-5 M, 48 h
[46] = system: ACHN; format: cell-based; details: Homo sapiens, one dose 10^-5 M, 48 h
[47] = system: NCI-H226; format: cell-based; details: Homo sapiens, one dose 10^-5 M, 48 h
[48] = system: NCI/ADR-RES; format: cell-based; details: Homo sapiens, one dose 10^-5 M, 48 h
[49] = system: SF-268; format: cell-based; details: Homo sapiens, one dose 10^-5 M, 48 h, read-out: % growth
[50] = system: SNB-19; format: cell-based; details: Homo sapiens, one dose 10^-5 M, 48 h, read-out: % growth
[51] = system: RXF 393; format: cell-based; details: Homo sapiens, RXF 393, 48 h, one dose 10^-5 M, 48 h, read-out: % growth
[52] = system: UACC-257; format: cell-based; details: Homo sapiens, one dose 10^-5 M, 48 h
[53] = system: OVCAR-3; format: cell-based; details: Homo sapiens, one dose 10^-5 M, 48 h
[54] = system: HCT-15; format: cell-based; details: Homo sapiens, one dose 10^-5 M, 48 h, read-out: % growth
[55] = system: K-562; format: cell-based; details: Homo sapiens, K562, one dose 10^-5 M, 48 h
[56] = system: MDA-MB-468; format: cell-based; details: Homo sapiens, one dose 10^-5 M, 48 h
[57] = system: SF-295; format: cell-based; details: Homo sapiens, one dose 10^-5 M, 48 h
[58] = system: KM12; format: cell-based; details: Homo sapiens, one dose 10^-5 M, 48 h
[59] = system: BT-549; format: cell-based; details: Homo sapiens, one dose 10^-5 M, 48 h
[60] = system: MALME-3M; format: cell-based; details: Homo sapiens, one dose 10^-5 M, 48 h
[61] = system: SF-539; format: cell-based; details: Homo sapiens, one dose 10^-5 M, 48 h
[62] = system: SK-MEL-5; format: cell-based; details: Homo sapiens, one dose 10^-5 M, 48 h, read-out: % growth
[63] = system: CAKI-1; format: cell-based; details: Homo sapiens, CAKI-1, 48 h, one dose 10^-5 M, 48 h
[64] = system: U251; format: cell-based; details: Homo sapiens, U-251, one dose 10^-5 M, 48 h
[65] = system: NCI-H23; format: cell-based; details: Homo sapiens, one dose 10^-5 M, 48 h, read-out: % growth
[66] = system: OVCAR-5; format: cell-based; details: Homo sapiens, one dose 10^-5 M, 48 h
[67] = system: MDA-MB-231/ATCC; format: cell-based; details: Homo sapiens, one dose 10^-5 M, 48 h
[68] = system: RPMI-8226; format: cell-based; details: Homo sapiens, one dose 10^-5 M, 48 h
[69] = system: A549/ATCC; format: cell-based; details: Homo sapiens, one dose 10^-5 M, 48 h
[70] = system: T-47D; format: cell-based; details: Homo sapiens, T47D, one dose 10^-5 M, 48 h, read-out: % growth

Compound: C#Cc1cccc(Nc2ncnc3cc(OCCOC)c(OCCOC)cc23)c1 [erlotinib]
- IC50 [1]: 22.8 ± 0.65 µM

Compound: C/C(=N\Nc1nc(Sc2ccccc2)nc2c1nnn2-c1ccccc1)c1ccccc1O [XXII]
- IC50 [2]: 56.2 µM
- IC50 [3]: 0.87 µM

Compound: NC1=NC(NC(=O)Nc2ccc(Cl)c(C(F)(F)F)c2)=CC(c2ccccc2)N1 (stereo not shown) [XIX]
- IC50 [4]: 11.1 µM

Compound: COc1cc(C2=NC3N=C(C)C(C(C)=O)C(c4ccc([N+](=O)[O-])cc4)N3N2)cc(OC)c1OC (stereo not shown) [XXI]
- IC50 [5]: 0.75 µM
- IC50 [6]: 1.02 µM

Compound: C[C@H](Nc1ncnc2[nH]cnc12)c1cc2cccc(Cl)c2c(=O)n1-c1ccccc1 [Duvelisib]
- IC50 [1]: 22.8 ± 0.65 µM

Compound: N#CC1=C(c2ccc(F)cc2)N=C(N/N=C/c2c[nH]c3ccccc23)NC1N1CCOCC1 (stereo not shown) [Compound XVII]
- TGI (total growth inhibition) [7]: 28.66 µM
- GI50 ([7]; read-out: GI50 (median growth inhibition)): 6.15 µM

Compound: CCCCSC1=NC(c2ccccc2)=C(C#N)C(Nc2ccccn2)N1 (stereo not shown) [Compound XIV]
- IC50 [8]: 4.03 µM
- IC50 [9]: 0.09 µM
- activity relative to erlotinib [10]: 4.5- to 8.4 fold
- increase of caspase-3 level compared to the control [11]: 6.5 times

Compound: COc1ccc(C=NNC(=N)c2c(N)nc(S)nc2-c2ccc(Cl)cc2Cl)cc1 [Compound 4p, 4-amino-6–(2,4-dichlorophenyl)-2-mercapto-N'-[(4-methoxyphenyl)methylene] pyrimidine-5-carboximidohydrazide]
- % growth at 10 µM [12]: 90.2%
- % growth at 10 µM [13]: 96.9%
- % growth at 10 µM [14]: 97.2%
- activity at 10 µM [15]: 113%
- % growth at 10 µM [16]: 108%
- % growth at 10 µM [17]: 90.2%
- activity at 10 µM [18]: 108%
- % growth of cells at 10 µM [19]: 103%
- % growth at 10 µM [20]: 127%
- % growth at 10 µM [21]: 110%
- activity at 10 µM [22]: 95.7%
- activity at 10 µM [23]: 103%
- % growth at 10 µM [24]: 97.5%
- % cell growth at 10 µM [25]: 108%
- activity at 10 µM [26]: 99.8%
- activity at 10 µM [27]: 113%
- % cell growth at 10 µM [28]: 112%
- % growth at 10 µM [29]: 108%
- % growth at 10 µM [30]: 138%
- % cell growth at 10 µM [31]: 143%
- activity at 10 µM ([32]; Homo sapiens, 60 cell, 48 h, read-out: Mean % growth): 104%
- activity on all 60 cancer cell lines tested (in words) ([32]; one dose): weak activity
- percent cell growth at 10 µM [33]: 97.5%
- % cell growth at 10 µM [34]: 97.7%
- % growth at 10 µM [35]: 115%
- % growth at 10 µM [36]: 74.8%
- % cell growth at 10 µM [37]: 99.1%
- activity at 10 µM [38]: 105%
- % growth at 10 µM [39]: 107%
- % growth at 10 µM [40]: 118%
- % growth at 10 µM [41]: 105%
- activity at 10 µM [42]: 91.5%
- percent cell growth at 10 µM [43]: 98.9%
- % growth at 10 µM [44]: 106%
- % growth at 10 µM [45]: 122%
- % growth at 10 µM [46]: 110%
- % growth at 10 µM [47]: 97.2%
- cell growth percent at 10 µM [48]: 114%
- activity at 10 µM [49]: 104%
- activity at 10 µM [50]: 93%
- activity at 10 µM [51]: 94.5%
- percent cell growth at 10 µM [52]: 103%
- % growth at 10 µM [53]: 113%
- activity at 10 µM [54]: 106%
- % growth at 10 µM [55]: 102%
- percent cell growth at 10 µM [56]: 105%
- % cell growth at 10 µM [57]: 85.8%
- % growth at 10 µM [58]: 104%
- % cell growth at 10 µM [59]: 95.6%
- % growth at 10 µM [60]: 89.4%
- % growth at 10 µM [61]: 96.8%
- activity at 10 µM [62]: 105%
- % growth at 10 µM [63]: 97.3%
- % growth at 10 µM [64]: 103%
- activity at 10 µM [65]: 100%
- percent cell growth at 10 µM [66]: 117%
- % growth at 10 µM [67]: 90.5%
- % growth at 10 µM [68]: 99.4%
- % growth at 10 µM [69]: 102%
- activity at 10 µM [70]: 100%
